Test [1] is described as follows: Apoptogenic activity against K-422 cells after 24 hr treatment at concentration 30 uM. The format is functional, cell-based. Conditions: Homo sapiens.
Test [2] in a line: Apoptogenic activity against Molt cells after 24 hr treatment at concentration 30 uM. Conditions: Homo sapiens. The format is functional, cell-based.
The species entered for the next test is Homo sapiens. The experiment in a line: Apoptogenic activity against peripheral blood lymphocytes after 24 hr treatment at concentration 30 uM. It is filed as functional.
The nature of test [3]: Aoptogenic activity against Molt cells after 24 hr treatment at concentration 30 uM. Conditions: Homo sapiens. The format is functional, cell-based.

Nine molecules from ChEMBL document CHEMBL1131874, “Synthesis and apoptogenic activity of fluorinated ceramide and dihydroceramide analogues” (1999) can be followed below.

In the case of `CCCCCCCCC[C@H](O)[C@H](CO)NC(=O)CCCCC`, the Cells came to 15% in test [1], 9% in test [2] and 57% in the test listed under Homo sapiens.

For `CCCCCCC/C=C/[C@H](F)[C@H](CO)NC(=O)CCCCC`, the Cells in test [1] was found to be 51.2%; in test [2], 13.7%; in the test filed under Homo sapiens it was 47.7%.

`CCCCCCCCC[C@H](F)[C@H](CO)NC(=O)CCCCC`: the Cells in test [1] stood at 32%; in test [2] it was 31.6%; in the test listed under Homo sapiens it was 46%.

For `CCCCCCC/C=C/[C@H](O)[C@H](CO)NC(=O)CCCCC`, the figures for the Cells (in test [1]; in test [2]; in the test listed under Homo sapiens) were 32.7%, 1% and 33.5%, respectively.

For `CCCCCCCCC[C@H](F)[C@H](CO)NC(C)=O`, the Cells was found to be 7.3% in test [1], 3% in test [3] and 3% in the test filed under Homo sapiens.

For the molecule `CCCCCCC/C=C/[C@@H](F)[C@H](CO)NC(=O)CCCCC`, the Cells worked out at 34.7% in test [1], 11% in test [2] and 40% in the test listed under Homo sapiens.

With `CCCCCCC/C=C/[C@@H](O)[C@H](CO)NC(=O)CCCCC`, the Cells in test [1] worked out at 12.7%; in test [2], 3.5%; in the test listed under Homo sapiens, 12%.

Consider `CCCCCC(=O)N[C@@H](CO)[C@@H](F)CCc1ccccc1`, for which the Cells in test [1] was 2.5%; in test [2] it was 2%; in the test listed under Homo sapiens it was 0.5%.

As for `CCCCCCCCCCCCC/C=C/[C@@H](O)[C@H](CO)NC(C)=O`, the Cells in test [1] was determined as 27.7%; in test [2], 51%; in the test listed under Homo sapiens it was 48.8%.
